# Read-outs that look alike come from different tables or passages of the source.
# Key:
# [1] = PAMPA permeability; assay type: in vitro ADME; details: Hex, read-out: PAMPA Hex
# [2] = test system: PDE-1; assay: PDE-1 inhibition; assay type: biochemical
# [3] = T1/2 in rat liver microsomes; assay type: in vitro ADME
# [4] = biological target: PDE5 (Homo sapiens, UniProt O76074); assay: PDE-5 human inhibition; assay type: biochemical
# [5] = Solubility; assay type: physicochemical
# [6] = T1/2 in human liver microsomes; assay type: in vitro ADME
# [7] = biological target: T1, PDE-6 bovine (Bos taurus, UniProt P11541+P23439); assay: PDE-6 bovine inhibition; assay type: biochemical
# T1 sequence (P11541 2-856 limits assumed): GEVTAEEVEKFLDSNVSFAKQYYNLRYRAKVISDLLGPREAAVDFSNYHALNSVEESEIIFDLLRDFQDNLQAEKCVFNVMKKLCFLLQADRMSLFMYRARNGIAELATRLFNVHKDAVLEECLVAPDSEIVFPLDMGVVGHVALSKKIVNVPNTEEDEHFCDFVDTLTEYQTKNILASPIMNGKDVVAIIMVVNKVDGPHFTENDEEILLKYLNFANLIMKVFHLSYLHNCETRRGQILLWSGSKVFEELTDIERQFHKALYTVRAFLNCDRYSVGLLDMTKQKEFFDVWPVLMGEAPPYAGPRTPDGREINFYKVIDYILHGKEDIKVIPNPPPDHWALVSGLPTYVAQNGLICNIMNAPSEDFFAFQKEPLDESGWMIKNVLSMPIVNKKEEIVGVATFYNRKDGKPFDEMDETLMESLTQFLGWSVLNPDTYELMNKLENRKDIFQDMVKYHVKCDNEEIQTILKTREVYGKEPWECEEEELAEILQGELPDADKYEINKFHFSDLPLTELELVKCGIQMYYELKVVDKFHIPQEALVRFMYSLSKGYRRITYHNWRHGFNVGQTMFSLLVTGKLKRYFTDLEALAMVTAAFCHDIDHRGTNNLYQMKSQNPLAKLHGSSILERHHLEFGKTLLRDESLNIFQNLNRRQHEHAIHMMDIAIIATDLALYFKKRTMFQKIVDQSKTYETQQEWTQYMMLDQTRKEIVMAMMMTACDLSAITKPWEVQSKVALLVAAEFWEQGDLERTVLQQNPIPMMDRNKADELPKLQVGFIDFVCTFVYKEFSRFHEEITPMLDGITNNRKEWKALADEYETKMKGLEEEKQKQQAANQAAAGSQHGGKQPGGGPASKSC
# T1 sequence (P23439 2-850 limits assumed): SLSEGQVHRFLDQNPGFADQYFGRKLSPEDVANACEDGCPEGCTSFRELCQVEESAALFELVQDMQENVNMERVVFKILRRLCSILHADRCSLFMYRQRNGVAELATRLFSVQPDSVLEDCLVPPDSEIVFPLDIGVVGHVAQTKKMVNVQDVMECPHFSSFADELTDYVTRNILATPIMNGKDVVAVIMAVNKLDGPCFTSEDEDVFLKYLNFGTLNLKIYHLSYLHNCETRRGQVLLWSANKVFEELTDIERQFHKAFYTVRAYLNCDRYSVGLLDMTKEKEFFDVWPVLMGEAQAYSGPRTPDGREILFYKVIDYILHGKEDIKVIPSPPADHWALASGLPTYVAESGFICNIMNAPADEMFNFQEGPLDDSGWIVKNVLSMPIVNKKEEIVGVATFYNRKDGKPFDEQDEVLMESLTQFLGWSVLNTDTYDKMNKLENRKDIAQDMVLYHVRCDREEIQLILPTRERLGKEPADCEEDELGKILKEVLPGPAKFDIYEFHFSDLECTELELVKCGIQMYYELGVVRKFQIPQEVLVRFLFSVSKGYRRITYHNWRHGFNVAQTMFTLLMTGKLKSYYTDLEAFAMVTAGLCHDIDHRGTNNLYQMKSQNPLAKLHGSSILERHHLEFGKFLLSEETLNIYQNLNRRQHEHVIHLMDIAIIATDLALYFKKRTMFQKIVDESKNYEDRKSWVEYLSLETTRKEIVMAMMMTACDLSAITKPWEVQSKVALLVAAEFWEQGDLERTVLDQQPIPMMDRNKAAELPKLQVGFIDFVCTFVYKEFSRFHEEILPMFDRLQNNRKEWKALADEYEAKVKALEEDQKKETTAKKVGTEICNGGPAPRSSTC
# [8] = test system: PDE-3; assay: PDE-3 inhibition; assay type: biochemical
# [9] = Caco-2 permeability; assay type: in vitro ADME; details: human; for Papp A→B: AtoB; for Papp B→A: BtoA
# Excerpt: Several model systems are available, employing monolayers of various cell types, for evaluation of active transport of pharmaceutically active substances. For example, monolayers of Caco-2 intestinal epithelial cells can be used to evaluate active transport of substances between the intestine and the bloodstream. When plated on a surface which allows the flow of material from apical to basolateral and vice versa, such cells form a biological membrane which can be used to simulate physiological absorption and bioavailability. In another example, mouse brain capillary endothelial cell (MBEC) lines have been established to evaluate active transport in and out of the central nervous system. Another example of such cells is HT29 human colon carcinoma cells. Further, monolayers expressing particular transporter proteins can be established using transfected cells. For example, Sasaki et al (2002) J. Biol. Chem. 8:6497 used a double-transfected Madin-Darby canine kidney cell monolayer to study transport of organic anions.
# [10] = Protein Binding; assay type: in vitro ADME; details: human, human serum components
# Experimental: In general, protein binding is assessed by measuring the capacity of molecules of the invention to bind to one or more human serum components or mimics thereof. In one embodiment, suitable functional residues may be identified by screening of surfaces comprising such residues for their ability to resist adsorption of serum components, including, but not limited to serum proteins, and preferably human serum proteins. Candidate residues can be screened directly by attaching them to a solid support and testing the support for protein resistance. Alternatively, candidate residues are incorporated into, or linked to molecules of pharmaceutical interest. Such compounds may be synthesized on a solid support, or bound to a solid support after synthesis. In a non-limiting example of a direct binding assay, immobilized candidate functional residues or molecules incorporating such residues are tested for their ability to bind serum components. The serum components can be labeled with a signaling moiety for detection, or a labeled secondary reagent that binds to such serum components can be used.
# A direct binding analysis can also be preformed in liquid phase. For example, test compounds can be mixed with one or more serum components in liquid phase, and the unbound molecules determined.
# [11] = test system: PDE-4 human; assay: PDE-4 human inhibition; assay type: biochemical
# [12] = Non-Spec Binding; assay type: in vitro ADME
# [13] = Chronic Cytoxicity (mouse 3T3); assay type: cell-based; details: 3T3 cells
# [14] = pH 2.7, aqueous buffer, read-out: Solubility (ug/mL) pH 2.7
# [15] = pH 7.4, aqueous buffer, read-out: Solubility (ug/mL) pH 7.4
Compound,Papp [1] [nm/s],IC50 [2] [nM],half-life [3] [min],IC50 [4] [nM],"solubility [5, 14] [µg/mL]","solubility [5, 15] [µg/mL]",half-life [6] [min],IC50 [7] [nM],IC50 [8] [nM],Papp A→B [9] [nm/s],Papp B→A [9] [nm/s],fraction unbound [10],IC50 [11] [nM],Non-Spec Binding (%) [12] [%],GI50 [13] [nM],LC50 (50% lethal concentration) [13] [nM]
CCCc1nc(C)c2c(=O)[nH]c(-c3cc(S(=O)(=O)N4CCN(C(=O)CN(C)C)CC4)ccc3OCC)nn12 [Compound 1],~10.6,95,45.4,0.14,124,111,34,4.4,–,–,–,–,–,–,–,–
CCCc1nc(C)c2c(=O)[nH]c(-c3cc(S(=O)(=O)N(CC)CCOC)ccc3OCC)nn12 [Compound 9],1330,12.9,9.8,0.113,–,–,9.83,0.946,697,551,609,0.01,1120,35.85,87300,> 100000
CCCc1nc(C)c2c(=O)[nH]c(-c3cc(S(=O)(=O)N4CCN(CCN5CCOCC5)CC4)ccc3OCC)nn12 [Compound 15],–,46.3,34,0.16,115,110,30.8,1.09,2230,84.5,406,0.155,3690,8.78,–,–
CCCc1nc(C)c2c(=O)[nH]c(-c3cc(S(=O)(=O)N(C)CC(OC)OC)ccc3OCC)nn12 [Compound 17],–,2.6,6.83,0.066,–,–,1.08,0.86,391,405,394,0.016,1100,36.5,–,–
CCCc1nc(C)c2c(=O)[nH]c(-c3cc(S(=O)(=O)N4CCN(CC(=O)NC(C)C)CC4)ccc3OCC)nn12 [Compound 18],–,16,33,0.037,–,–,44.1,0.64,507,41.1,463,0.0945,1300,22.15,–,–
CCCc1nc(C)c2c(=O)[nH]c(-c3cc(S(=O)(=O)N4CCN(C(=O)C5CCCO5)CC4)ccc3OCC)nn12 (stereo not shown) [Compound 19],–,2.55,24,0.056,–,–,22.4,0.685,1200,78.6,448,0.104,686,15.5,–,–
CCCc1nn(C)c2c(=O)[nH]c(-c3cc(S(=O)(=O)N4CCN(CCN5CCOCC5)CC4)ccc3OCC)nc12 [Compound 21],–,76,34,1.5,112,26,47,12,9600,–,–,0.071,3700,68.4,–,–

# Source: patent publication US8853394B2, “Pharmacokinetically improved compounds” (Surface Logix, Inc., priority 2006, dated 2014)
